Source: patent US20250275975A1, “Methods of Treating Neuropathies” (Athira Pharma, Inc., priority 2023, published 2025)

Columns and labels:
[1] = test system: neuron-Schwann cell co-cultures; test: Sensory neurite extension and myelination in healthy primary dorsal root ganglia cultures; type: cell-based, rat; design: key to Significant promotion of Neurite Network Extension of Sensory Neurons / Significant promotion of Myelination of Sensory neurons by Schwann Cells: “NS” indicates the treatment did not have a significant effect; “+” indicates the treatment had a significant effect; conditions: for Significant promotion of Myelination of Sensory neurons by Schwann Cells / Significant promotion of Neurite Network Extension of Sensory Neurons: Healthy cultures, vs vehicle
Experimental: (§1) To assess the effects of test compound treatment on these structures central to neuropathic pathology, peripheral sensory neurons were modeled using dissociated primary cultures of neurons and Schwann cells collected from fetal rats. Fetal rats were collected from pregnant females after 15 days of gestation, and the dorsal root ganglion was dissociated via trypsin digestion and mechanical disruption. The resulting cells were plated and allowed to grow for 7 days. On day 7 in culture, ascorbic acid at a concentration of 50 μM was added to the culture to promote myelination of sensory neurons by Schwann cells.
To model the effects of Compound 5a in the normal peripheral nervous system, neuron-Schwann cell co-cultures were treated with Compound 5a in combination with low doses of recombinant hepatocyte growth factor (HGF). On day 8 in culture, experimental treatments were added to culture media. These treatments included HGF with or without Compound 5a. Some cultures were treated with the steroid hormone B-estradiol to serve as a positive control. Treatments were applied every other day, and on day 21 in culture the cultures were fixed with ethanol and processed for immunodetection of both microtubule-associate protein 2 (MAP2) to reveal neurons and their neurites as well as myelin-associated glycoprotein (MAG) to reveal Schwann cells and the extent of their myelination of cultured neurites. Cells were counterstained with Hoechst DNA dye to identify individual cells.
(§2) 30 fluorescent images were captured for each treatment group and images were quantified by automated image analysis. Neurite network extension was quantified as the total length of MAP2-positive neurites per cell measured in μm. Myelination by Schwann cells was quantified by the area of overlap between MAP2-positive neurites and MAG-positive myelin wrapping measured in μm^2. Statistical analysis was performed as a one-way ANOVA with Fisher's LSD post-test against either vehicle- or Cisplatin-treated groups respectively.

[2] = test system: neuron-Schwann cell co-cultures injured with cisplatin; test: Sensory neurite extension and myelination in cisplatin-injured primary dorsal root ganglia cultures; type: cell-based, rat; design: key to Significant promotion of Neurite Network Extension of Sensory Neurons / Significant promotion of Myelination of Sensory neurons by Schwann Cells: “NS” indicates the treatment did not have a significant effect; “+” indicates the treatment had a significant effect; conditions: for Significant promotion of Myelination of Sensory neurons by Schwann Cells / Significant promotion of Neurite Network Extension of Sensory Neurons: +Cisplatin injury (10 μg/ml, 24 hours), vs Cisplatin-treated group
Experimental: as §1
To model the effects of neuropathic injury in sensory neurons and associated Schwann cells, cultures were injured with the chemotherapy drug cisplatin. These cultures were prepared identically to those described above. In this system, Compound 5a, HGF, and β-estradiol treatments began on culture day 19. Also on culture day 19, cisplatin (10 μg/ml) was added to the cultures for 24 hours. On culture day 20, cisplatin was removed from the media while test compound treatments were replaced for 24 hours. On day 21 in culture, cells were fixed and processed for immunodetection as described above.
as §2

STZ DNP rats [3] = test: Mechanical allodynia rescue assay (Von Frey paw withdrawal threshold), Example B1; type: in vivo, Sprague Dawley rats; design: key to Efficacy: rescue of mechanical allodynia behavior as measured by paw withdrawal threshold: NS indicates treatment did not significantly affect paw withdrawal threshold vs disease control.; + indicates p < 0.05 vs disease control.; ++ indicates p < 0.01 vs disease control.; +++ indicates p < 0.001 vs disease control; conditions: for Efficacy: rescue of mechanical allodynia behavior as measured by paw withdrawal threshold: study day 28 after 14 days of treatment, p vs disease control; for rescue of the mechanical allodynia behavior as measured by paw withdrawal threshold: STZ DNP rats
Excerpt: Hyperglycemic rats consistently develop neuropathic pain-associated behaviors including mechanical allodynia. Allodynia refers to a type of neuropathic pain characterized by increased sensitivity to stimuli that are not normally painful. Mechanical allodynia is quantified in rats by determination of the force required to induce a withdrawal of the paw and is negatively associated with allodynia such that, the lower the force required to induce paw withdrawal, the greater the pain behavior.
(§3) A series of studies were performed to determine the ability of HGF/MET positive modulator compounds to reduce the mechanical allodynia pain behaviors in hyperglycemic rats. A single dose of STZ (55 mg/kg via intravenous (IV)) was administered to induce a Type I diabetic hyperglycemia in male Sprague Dawley rats. Hyperglycemia was confirmed 4 days after STZ administration, with blood glucose levels above 200 mg/dL considered successful model induction. 14 days after disease induction, test compound treatment was initiated and continued as daily compound administration over the remaining course of the study. Route and dose for each compound were determined by pharmacokinetic and distribution modelling. Control groups included animals with no diabetic induction (Sham control), animals with diabetes but treated only with formulation vehicle (DNP (diabetic peripheral neuropathy) control), and disease animals treated with pregabalin (30 mg/kg via PO), which is known to reduce neuropathic pain behaviors.
(§4) Changes to neuropathic pain behaviors were assessed after 14 days of compound treatment on study day 28. Mechanical allodynia was tested by placing each animal on an elevated wire grid and stimulating the plantar surface of the right rear paw with a series of filaments corresponding to increasing orders of force, reaching a maximum force of 60 grams (Aesthesio manual Von Frey filaments). The force of the filament that causes paw withdrawal was considered the paw withdrawal threshold in grams. Pain sensitivity in response to thermal hyperalgesia was determined by using hot plate method and represented as paw withdrawal latency (PWL). Rats were placed on the hot plate (52.5° C.), and the time taken to show the nocifensive behavior (either licking or jumping) of any of their paws was recorded. Statistical comparison of treatment groups to DNP control groups was performed by one-way ANOVA followed by Dunnett's multiple comparisons test.

STZ DNP rats [4] = test: Thermal hyperalgesia rescue assay (hot plate paw withdrawal latency), Example B1; type: in vivo, Sprague Dawley rats; design: key to Efficacy: rescue of thermal hyperalgesia behavior as measured by paw withdrawal latency: NS indicates treatment did not significantly affect paw withdrawal latency vs disease control.; + indicates p < 0.05 vs disease control.; ++ indicates p < 0.01 vs disease control.; +++ indicates p < 0.001 vs disease control; conditions: for Efficacy: rescue of thermal hyperalgesia behavior as measured by paw withdrawal latency: study day 28 after 14 days of treatment, hot plate 52.5° C., p vs disease control; for rescue of thermal allodynia behavior as measured by paw withdrawal latency: STZ DNP rats
Experimental: as §3, §4

[5] = healthy cultures, positive control β-estradiol
[6] = injured cultures, positive control β-estradiol
[7] = healthy cultures, HGF alone at either 0.05 or 5 ng/ml
[8] = injured cultures, HGF alone at either 0.05 or 5 ng/ml

`C[C@]12CC[C@@H]3c4ccc(O)cc4CC[C@H]3[C@@H]1CC[C@@H]2O` [β-estradiol, reference compound] was tested, and the “Significant promotion of Myelination of Sensory neurons by Schwann Cells” value (shortened to “Significant promotion … by Schwann Cells”) ([1]; β-estradiol 150 nM) was “+”, the “Significant promotion of Neurite Network Extension of Sensory Neurons” value ([1]; β-estradiol 150 nM) was “+” and the “myelination of sensory neurons by Schwann cells” value [1, 5] was “significantly promoting”. For the same compound, the neurite network extension [1, 5] was “significantly promoting”, the “Significant promotion … by Schwann Cells” value ([2]; β-estradiol 150 nM) was “+” and the “Significant promotion of Neurite Network Extension of Sensory Neurons” value ([2]; β-estradiol 150 nM) was “+”. The “myelination of sensory neurons by Schwann cells” value [2, 6] was “significantly promoting” and the neurite network extension [2, 6] was “significantly promoting”.
For “HGF: recombinant hepatocyte growth factor (HGF), added at low doses with or without Compound 5a”, the “Significant promotion … by Schwann Cells” value ([1]; HGF 0.05 ng/ml alone) was “NS”, the “Significant promotion of Neurite Network Extension of Sensory Neurons” value ([1]; HGF 0.05 ng/ml alone) was “NS” and the “Significant promotion … by Schwann Cells” value ([1]; HGF 5 ng/ml alone) was “NS”. For the same compound, the “Significant promotion of Neurite Network Extension of Sensory Neurons” value ([1]; HGF 5 ng/ml alone) was “NS”, the myelination [1, 7] was “did not significantly promote” and the neurite network extension [1, 7] was “did not significantly promote”. The “Significant promotion … by Schwann Cells” value ([2]; HGF 0.05 ng/ml alone) was “NS”, the “Significant promotion of Neurite Network Extension of Sensory Neurons” value ([2]; HGF 0.05 ng/ml alone) was “NS” and the “Significant promotion … by Schwann Cells” value ([2]; HGF 5 ng/ml alone) was “NS”. For the same compound, the “Significant promotion of Neurite Network Extension of Sensory Neurons” value ([2]; HGF 5 ng/ml alone) was “NS”, the myelination [2, 8] was “did not significantly promote” and the neurite network extension [2, 8] was “did not significantly promote”.
With `CCC(C)CN1CC2N(Cc3ccc(OC(F)F)cc3)CCC(=O)N2[C@@H](C)C1=O` (stereo partly shown) [Compound 6a] the “Efficacy: rescue of mechanical allodynia behavior as measured by paw withdrawal threshold” value (shortened to “Efficacy: rescue … by paw withdrawal threshold”) (STZ DNP rats [3]; 0.156 mg/kg PO daily) was “NS”, the “Efficacy: rescue … by paw withdrawal threshold” value (STZ DNP rats [3]; 0.625 mg/kg PO daily) was “+ (+ indicates p < 0.05 vs disease control.)” and the “Efficacy: rescue … by paw withdrawal threshold” value (STZ DNP rats [3]; 2.5 mg/kg PO daily) was “+++ (+++ indicates p < 0.001 vs disease control.)”. For the same compound, the “Efficacy: rescue … by paw withdrawal threshold” value (STZ DNP rats [3]; 10 mg/kg PO daily) was “+++ (+++ indicates p < 0.001 vs disease control.)”, the “rescue of the mechanical allodynia behavior as measured by paw withdrawal threshold” value (STZ DNP rats [3]) was “significant rescue” and the “Efficacy: rescue of thermal hyperalgesia behavior as measured by paw withdrawal latency” value (from here on “Efficacy: rescue … by paw withdrawal latency”) (STZ DNP rats [4]; 0.156 mg/kg PO daily) was “NS”. For the same compound, the “Efficacy: rescue … by paw withdrawal latency” value (STZ DNP rats [4]; 0.625 mg/kg PO daily) was “NS”, the “Efficacy: rescue … by paw withdrawal latency” value (STZ DNP rats [4]; 2.5 mg/kg PO daily) was “++ (++ indicates p < 0.01 vs disease control.)” and the “Efficacy: rescue … by paw withdrawal latency” value (STZ DNP rats [4]; 10 mg/kg PO daily) was “+++ (+++ indicates p < 0.001 vs disease control.)”. The “rescue of thermal allodynia behavior as measured by paw withdrawal latency” value (STZ DNP rats [4]) was “significant rescue”.
For `CCC(C)CN1CC2N(C(=O)c3ccc(OC(F)F)cc3)CCC(=O)N2[C@@H](C)C1=O` (stereo partly shown) [Compound 2a], the “Efficacy: rescue … by paw withdrawal threshold” value (STZ DNP rats [3]; 0.00625 mg/kg PO daily) was “+ (+ indicates p < 0.05 vs disease control.)”, the “Efficacy: rescue … by paw withdrawal threshold” value (STZ DNP rats [3]; 0.025 mg/kg PO daily) was “++ (++ indicates p < 0.01 vs disease control.)” and the “Efficacy: rescue … by paw withdrawal threshold” value (STZ DNP rats [3]; 0.1 mg/kg PO daily) was “+++ (+++ indicates p < 0.001 vs disease control.)”. The “Efficacy: rescue … by paw withdrawal threshold” value (STZ DNP rats [3]; 1 mg/kg PO daily) was “+++ (+++ indicates p < 0.001 vs disease control.)”, the “rescue of the mechanical allodynia behavior as measured by paw withdrawal threshold” value (STZ DNP rats [3]) was “significant rescue” and the “Efficacy: rescue … by paw withdrawal latency” value (STZ DNP rats [4]; 0.00625 mg/kg PO daily) was “+ (+ indicates p < 0.05 vs disease control.)”. The “Efficacy: rescue … by paw withdrawal latency” value (STZ DNP rats [4]; 0.025 mg/kg PO daily) was “NS”, the “Efficacy: rescue … by paw withdrawal latency” value (STZ DNP rats [4]; 0.1 mg/kg PO daily) was “++ (++ indicates p < 0.01 vs disease control.)” and the “Efficacy: rescue … by paw withdrawal latency” value (STZ DNP rats [4]; 1 mg/kg PO daily) was “NS”. For the same compound, the “rescue of thermal allodynia behavior as measured by paw withdrawal latency” value (STZ DNP rats [4]) was “significant rescue”.
